Laboratory results: patent US20250108141A1, “TOPICAL FORMULATIONS FOR TARGETED DELIVERY OF THERAPEUTICS” (UNM RAINFOREST INNOVATIONS, priority 2023, published 2025)
Entries after “also recorded” stand apart in the source; their conditions may differ.

Columns and labels:
[1] = test system: HPV16-infected cells established from cervix (W12-E); assay: HPV16-infected W12-E 3D organotypic raft tissue, trametinib added systemically; type: cell-based; conditions: 10 nM trametinib added systemically every 48 hours on days 8, 10, 12
Experimental: FIG. 2. Histology data showing that HPV16 oncogene transcription and activity is modulated by MEK1/2 activation in 3D organotypic epithelial tissue cultures. HPV16-infected cells established from cervix (W12-E) were cultured as raft tissues for 14 days. Panels A-D are taken from tissues cultured under normal conditions. Panels E-H are images of tissue cultured with 10 ng/mL EGF added systemically (in the cell culture medium below the basal layer and collagen matrix) every 48 hours on days 8, 10, and 12 post raft tissue lifting to the air-liquid interface. Panels I-L are images of tissues cultured with 10 nM trametinib added systemically every 48-hours on days 8, 10, and 12 post raft tissue lifting to the air-liquid interface. Tissues were examined for morphology (Top, H&E staining), phosphorylated ERK1/2 (p-ERK1/2) immunohistochemistry (brown), HPV E6&E7 mRNA in situ hybridization (red), and E7 activity via proxy p16INK4A immunohistochemistry. Broken lines underscore the basal cell layer above the collagen matrix; bars=100 μm.

[2] = test system: HPV16-infected SG3 human keratinocytes; assay: Topical treatment of HPV16-infected 3D organotypic epithelial raft tissues; type: cell-based
Experimental: FIG. 6. […] HPV16-infected (SG3) cells were cultured as raft tissues for 12 days. Duplicate raft tissues were left untreated, or topically treated with 0.5 ml of either vehicle gel (20% Tc, 2.5% HPC in PBS) alone or 30 μM trametinib in vehicle gel for 48 hours. One raft from each duplicate set was collected for total protein extraction for SDS-PAGE and immunoblots (A), the second raft was harvested for tissue fixation, paraffin embedding, and cross-sectioning of tissues for histology (B-J). […] Panels B-D show histology by H&E staining in untreated, vehicle-treated, and 30 μM trametinib-treated rafts. […] Broken lines underscore the basal cell layer.
FIG. 18. Experiment akin to that in FIG. 6, except that it uses 2.5% HPC and 10% Tc for the vehicle. Drug treatment includes 15 μM trametinib. Experimental groups were treated with the topical formulations for 24 hours or 48 hours before harvesting for immunoblots and tissue sectioning.
The experimental protocol used in this example is illustrated in FIG. 5. A semi-solid collagen-fibroblast matrix was created to act as a dermal equivalent (stage 1). HPV16-infected SG3 human keratinocytes (cells) that maintained circular HPV16 genomes extrachromosomally were seeded on the top of the dermal equivalent submerged in growth medium (stage 2). After the HPV-infected keratinocytes grew to confluency (2-3 days), growth medium was removed, and the dermal equivalent was lifted to the air-liquid interface above fresh growth medium (stage 3). Fresh medium was replaced every two days. This allowed the keratinocytes to stratify and differentiate into a multilayered epithelium akin to human skin/mucosa within 10-12 days (Stage 4).
The MEK1/2 inhibitor trametinib was dissolved in diethylene glycol monoethyl ether (TRANSCUTOL; Gattefosse SAS, Saint-Priest, France). The trametinib-2-(2-ethoxyethoxy)ethanol solution was combined with hydroxypropyl cellulose (KLUCEL MXF Pharma, 850 kDa), a pharmaceutical grade thermal gelation agent. Formulations of 30 μM trametinib, 20% 2-(2-ethoxyethoxy)ethanol, and 2.5% hydroxypropyl cellulose applied one time to stratified and differentiated HPV16-infected three-dimensional organotypic epithelial “raft” tissues cultured at the air-liquid interface for 12 days. Each treatment was carried out in duplicate. Tissues were harvested daily two to five days post treatment for total protein extraction and histological analyses (FIG. 6). Specifically, each raft tissue was divided in half with a scalpel. One half was subject to total protein extraction, SDS-PAGE and immunoblot; the second half was fixed in 10% neutral buffered formalin, embedded in paraffin, and sectioned ([…]) on to microscope slides. The tissue sections were subject to histology, immunohistochemistry, or in situ hybridization.
Formulations according to TABLE 2 were prepared. Epithelial raft tissues were prepared as described in Example 1. Each formulation was topically applied to duplicate HPV-infected raft epithelial tissues.
Each formulation was left on the tissue raft undisturbed for 48 hours. 48 hours after treatment, tissues were harvested for protein extraction and histological analysis as described above.
In Example 3, epithelial raft tissues were topically treated in duplicate with formulations including trametinib and 2-(2-ethoxyethoxy)ethanol and analyzed for p-ERK1/2 and E7 protein expression after three days (72 hours). Epithelial raft tissues were prepared as described in Example 1. Formulations were prepared according to TABLE 2. Each epithelial raft tissue was topically treated with one formulation. 72 hours after treatment, epithelial raft tissues were collected for protein extraction.

[3] = test system: MmuPV1; assay: MmuPV1-induced tail tumor (wart) model, oral gavage; type: in vivo; conditions: oral gavage every 48 hours for four weeks, cobimetinib 7.5 or 15 mg/kg, trametinib 1.0 or 2.0 mg/kg, athymic nude mice
Experimental: FIG. 3. […] Female Hsd:Athymic Nude-Foxn1^nu mice were infected with 2×10^8 viral genome equivalents (VGE) of MmuPV1 virions. Tumors (warts) were allowed to grow for 6 weeks before randomizing into vehicle or treatment groups (n=6 per group) with each group having an average tumor volume (length×width×height) of approximately 40 mm^3. Mice were dosed by oral gavage treatment every 48 hours for four weeks before harvesting each tumor for histology. (A) Quantification of tail tumor volumes over 32 days of treatment in mice infected with MmuPV1 and treated with vehicle, 7.5 mg/kg cobimetinib, or 15 mg/kg cobimetinib. (B) Quantification of tail tumor volume over 32 days of treatment in mice infected with MmuPV1 and treated with vehicle (same as in FIG. 3A), 1.0 mg/kg trametinib, or 2.0 mg/kg trametinib. Statistical analyses by two-way Anova, Dunnett's T3 test ([…], ** p<0.01). (C) Representative images of tail tumors of a mouse treated with vehicle only. (D) Representative images of tail tumors of a mouse treated with 7.5 mg/kg cobimetinib or 15 mg/kg cobimetinib. (E) Representative images of tail tumors of a mouse treated with 1.0 mg/kg trametinib or 2.0 mg/kg trametinib.

[4] = test system: HPV16-infected SG3 human keratinocytes; assay: Topical treatment of HPV16-infected 3D organotypic epithelial raft tissues; type: cell-based; conditions: TABLE 2 formulations, single topical treatment, 96 hours
[5] = test system: MmuPV1; assay: Topical gel treatment of MmuPV1-induced tumors in vivo; design: species or system mice; conditions: daily topical gel (2.5% HPC, 15%-18% TRANSCUTOL) with trametinib 150 μM-600 μM; starting tumors 145.3 mm^3 to 279.4 mm^3
Experimental: Mice bearing MmuPV1-induced tumors ranging in volume from 145.3 mm^3 to 279.4 mm^3 were treated daily with a topical gel (2.5% HPC, 15%-18% TRANSCUTOL (Gattefosse SAS, Saint-Priest, France)) containing the MEK inhibitor trametinib (150 μM-600 μM).

[6] = test system: HPV16-infected SG3 cells; assay: MK-8353 treatment of HPV16-infected SG3 cells, immunoblot; type: cell-based; conditions: MK-8353 dissolved in Tc, 48 h
Experimental: The p-ERK1/2 inhibitor MK-8353 (Selleck Chemicals LLC, Houston, TX) was dissolved in 2-(2-ethoxyethoxy)ethanol (Tc) at 5 mM. HPV16-infected SG3 cells were plated in complete medium and then treatments were initiated without active agent or with increasing concentrations of MK-8353 in serum-free medium. At 24 h post treatment, fresh treatments were added and maintained for an additional 24 h. Cells treated for 48 h were lysed with detergent-containing buffer and 50 μg of each sample was analyzed by SDS-PAGE and immunoblot for the proteins of interest including p-ERK1/2, p-Fra1, HPV16 E7, and actin.

[7] = 15 μM trametinib in 2.5% HPC and 10% Tc vehicle, 24 hours or 48 hours
[8] = TABLE 2 formulations, 30 μM trametinib, single topical treatment, 48 hours
[9] = increasing concentrations in serum-free medium

## CC(=O)Nc1cccc(-n2c(=O)n(C3CC3)c(=O)c3c(Nc4ccc(I)cc4F)n(C)c(=O)c(C)c32)c1 [trametinib, N-(3-{3-Cyclopropyl-5-[(2-fluoro-4-iodophenyl)amino]-6,8-dimethyl-2,4,7-trioxo-3,4,6,7-tetrahydropyrido[4,3-d]pyrimidin-1 (2H)-yl}phenyl)acetamide]
[1]
  E7 activity (E7 surrogate p16INK4A protein): suppresses
  MEK activation (p-ERK1/2 immunohistochemistry): suppresses
  production of E6/E7 mRNA (in situ hybridization): suppresses
[1]; raft tissues cultured 14 days
  hyperproliferation: suppresses
[2]; [7]
  E6/E7 mRNA detection: reduced
  p-ERK1/2 protein detection: reduced
[2]; 30 μM trametinib, 20% 2-(2-ethoxyethoxy)ethanol, 2.5% HPC gel, applied one time, two days (48 hours) post treatment
  p-ERK1/2 by immunoblot: complete suppression; also recorded: reduction in p-ERK1/2 to almost undetectable levels
[2]; 30 μM trametinib, 20% Tc, 2.5% HPC gel, applied one time, three to five days post treatment
  p-ERK1/2 suppression, later harvests: sustained
[2]; 30 μM trametinib, 20% Tc, 2.5% HPC gel, 48 hours
  p-ERK1/2 by immunohistochemistry: abrogates
[2]; 30 μM trametinib, 20% Tc, 2.5% HPC gel, two days post treatment
  HPV16 E6/E7 mRNA by in situ hybridization: complete suppression; also recorded: reduces E6/E7 mRNA to undetectable levels
[2]; [8]
  HPV16 E7 protein by immunoblot: suppresses
  p-ERK1/2 by immunoblot: suppresses
[2]; one-time topical treatment, 30 μM trametinib, 20% Tc, 2.5% HPC
  hyperplasia: suppressed
[3]
  tail tumor (wart) volume: leads to tumor regression; also recorded: regression of warts to a smaller size than those originally treated
[4]
  E7 by immunoblot: decrease
  p-ERK1/2 by immunoblot: decrease
[5]
  MmuPV1 tumor volume: promotes MmuPV1 tumor regression

## CS[C@@]1(C(=O)Nc2ccc3[nH]nc(-c4ccc(OC(C)C)nc4)c3c2)CCN(CC(=O)N2CC=C(c3ccc(-c4ncn(C)n4)cc3)CC2)C1 [MK-8353]
[6]
  phosphorylation of ERK1/2 (p-ERK1/2): does not necessarily prevent
[6]; [9]
  levels of the HPV16 E7 oncoprotein: reduce the levels
  p-ERK1/2 activity as measured by p-Fra1 phosphorylation: Suppresses

## O=C(c1ccc(F)c(F)c1Nc1ccc(I)cc1F)N1CC(O)([C@@H]2CCCCN2)C1 [cobimetinib, (S)-[3,4-Difluoro-2-(2-fluoro-4-iodophenylamino)phenyl][3-hydroxy-3-(piperidin-2-yl)azetidine-1-yl]methanone]
[3]
  tail tumor (wart) volume: suppresses MmuPV1-induced benign tumor (e.g., wart) growth
[3]; listed as Cobimetinib
  tail tumor (wart) volume: suppresses wart growth but did not lead to regression
